Experimental data published in the NIST ThermoML archive (doi:10.1016/j.fluid.2013.10.029).

Experiment: excess molar enthalpy (molar enthalpy of mixing); xn = mol fraction of the nth substance listed
Conditions: 298.15 K, 101 kPa, Liquid, isothermal titration calorimeter

c1cc[nH]c1 [pyrrole] + c1ccccc1
Conditions	excess molar enthalpy [kJ/mol]
x1 = 0.015	0.0713
x1 = 0.03	0.123
x1 = 0.0448	0.17
x1 = 0.0597	0.213
x1 = 0.0747	0.253
x1 = 0.0896	0.289
x1 = 0.1045	0.323
x1 = 0.1193	0.354
x1 = 0.1343	0.384
x1 = 0.1493	0.411
x1 = 0.1642	0.435
x1 = 0.1792	0.458
x1 = 0.1942	0.479
x1 = 0.2092	0.499
x1 = 0.2242	0.517
x1 = 0.2392	0.533
x1 = 0.2542	0.547
x1 = 0.2691	0.56
x1 = 0.284	0.571
x1 = 0.299	0.581
x1 = 0.314	0.589
x1 = 0.329	0.597
x1 = 0.344	0.603
x1 = 0.359	0.608
x1 = 0.374	0.613
x1 = 0.389	0.616
x1 = 0.404	0.618
x1 = 0.419	0.619
x1 = 0.434	0.619
x1 = 0.449	0.618
x1 = 0.464	0.616
x1 = 0.479	0.613
x1 = 0.494	0.609
x1 = 0.5091	0.604
x1 = 0.5241	0.599
x1 = 0.5391	0.592
x1 = 0.5541	0.585
x1 = 0.5613	0.584
x1 = 0.5683	0.581
x1 = 0.5692	0.577
x1 = 0.583	0.574
x1 = 0.5842	0.567
x1 = 0.5977	0.567
x1 = 0.5993	0.557
x1 = 0.6122	0.558
x1 = 0.6143	0.547
x1 = 0.6267	0.549
x1 = 0.6411	0.539
x1 = 0.6554	0.528
x1 = 0.6696	0.517
x1 = 0.6838	0.505
x1 = 0.6978	0.492
x1 = 0.7118	0.479
x1 = 0.7257	0.464
x1 = 0.7395	0.449
x1 = 0.7533	0.433
x1 = 0.7669	0.417
x1 = 0.7805	0.4
x1 = 0.794	0.382
x1 = 0.8074	0.363
x1 = 0.8208	0.344
x1 = 0.8341	0.324
x1 = 0.8473	0.304
x1 = 0.8604	0.282
x1 = 0.8735	0.26
x1 = 0.8865	0.237
x1 = 0.8993	0.214
x1 = 0.9121	0.189
x1 = 0.9249	0.164
x1 = 0.9377	0.138
x1 = 0.9502	0.113
x1 = 0.9628	0.0851
x1 = 0.9753	0.0578
x1 = 0.9877	0.0292
